Reference: ChEMBL document CHEMBL1150106, “Carvone and perillaldehyde interfere with the serum-induced formation of filamentous structures in Candida albicans at substantially lower concentrations than those causing significant inhibition of growth” (J Nat Prod, 2002)
Calls of active or inactive are those of the source. The calls are words filed in the database; no cut-off is given here.

How the values were obtained:
Type in all cases: functional, organism-based
Candida albicans [1] = assay: Growth inhibition of cellular yeast form of Candida albicans H317 at 5 mM after 2 hrs
Candida albicans [2] = assay: Anticandidal activity against Candida albicans H317 assessed as inhibition of transformation of organism from cellular yeast to filamentous form at 250 uM preincubated for 2 hrs before addition of fetal bovine serum measured after 22 hrs by phase contrast microscopy
Candida albicans [3] = assay: Anticandidal activity against Candida albicans H317 assessed as inhibition of transformation of organism from cellular yeast to filamentous form at 125 uM preincubated for 2 hrs before addition of fetal bovine serum measured after 22 hrs by phase contrast microscopy

SMILES | Activity (Candida albicans [1]) | Activity (Candida albicans [2]) | Activity (Candida albicans [3])
C=C(C)[C@H]1CC=C(C)C(=O)C1 | Active | Active | 
C=C(C)[C@@H]1CC=C(C=O)CC1 | Active |  | Active
